Entries after “also recorded” stand apart in the source; their conditions may differ.
Tests used:
wild-type mice = assay: Spontaneous activity in the open field, wild-type mice; format: in vivo; conditions: WT mice; 2 mg/kg SC
Method: Male and female wild-type and homozygous mutant dopamine transporter KO mice (n˜10 mice/genotype/agent; produced by in vivo homologous recombination and bred at Duke University Medical Center, Durham, N.C.) were tested for spontaneous activity in the open field following a single injection of the vehicle or compound. Mice were placed into the open field for 30 min and administered SC the vehicle (sterile water), 2 mg/kg amphetamine, or three concentrations of the test compound (10, 30, 100 mg/kg). All drugs were given in a volume of 5 mL/kg. Animals were returned to the open field for an additional 90 min. Spontaneous activity was evaluated in an automated Omnitech Digiscan apparatus (Accuscan Instruments, Columbus, Ohio). […] Horizontal activity or locomotion was measured in terms of the total distance covered in cm, vertical activity or rearing was expressed in terms of the total numbers of vertical beam breaks, and stereotypy was quantified in terms of repetitive breaks of a given beam or beams with intervals of less than 1 sec. […] Data were analyzed by the Statistical Package for Social Sciences programs (version 11.0 for Windows; SPSS Science, Chicago, Ill.). The results for each dependent variable were analyzed by repeated analyses of variance (RMANOVA) for within subjects effects (group differences over time) and between-subjects effects (tests of main effects and interactions). […]

[1] = system: homozygous mutant dopamine transporter knockout (KO) mice; assay: Spontaneous activity in the open field, dopamine transporter KO mice; format: in vivo
Method: Male and female wild-type and homozygous mutant dopamine transporter KO mice (n˜10 mice/genotype/agent; produced by in vivo homologous recombination and bred at Duke University Medical Center, Durham, N.C.) were tested for spontaneous activity in the open field following a single injection of the vehicle or compound. […] All drugs were given in a volume of 5 mL/kg. Animals were returned to the open field for an additional 90 min. Spontaneous activity was evaluated in an automated Omnitech Digiscan apparatus (Accuscan Instruments, Columbus, Ohio). Activity was summated at 5 min intervals over the 2 h period of testing. Horizontal activity or locomotion was measured in terms of the total distance covered in cm, vertical activity or rearing was expressed in terms of the total numbers of vertical beam breaks, and stereotypy was quantified in terms of repetitive breaks of a given beam or beams with intervals of less than 1 sec. For the analyses, 10 WT and 10 KO mice were run in each of the treatment groups with approximately equal numbers of males and females assigned to each group. Data were analyzed by the Statistical Package for Social Sciences programs (version 11.0 for Windows; SPSS Science, Chicago, Ill.). The results for each dependent variable were analyzed by repeated analyses of variance (RMANOVA) for within subjects effects (group differences over time) and between-subjects effects (tests of main effects and interactions). Bonferroni corrected pair-wise comparisons were used as the post-hoc tests. A p<0.05 was considered significant.

[2] = system: hypocretin cell ablated narcoleptic mice (prepororexin/ataxin-3 transgenic); assay: Sleep parameters (EEG/EMG) in narcoleptic mice; format: in vivo; conditions: for Duration of continuous wakefulness: resting period (ZT 2)
Excerpt: (§1) The polygraph signal (EEG (electroencephalography) and EMG (electromyography)) was captured with SleepSign (Kissei Comtech), and the sleep stage was visually scored with 10 sec epoch for wakefulness, non-REM sleep and REM sleep. Scoring criteria are: Wakefulness is characterized by desynchronized low-amplitude, mixed frequency (>4 Hz) EEG and high EMG activity. Rhythmic alpha (8-9 Hz) wave (with high EMG activities) may also appear. Non-REM is characterized by synchronized, high-amplitude, low-frequency (0.25-4 Hz) with reduced EMG activity (compared to wakefulness). EEG activity in REM sleep is similar to that in wakefulness, with desynchronized, mixed frequency low amplitude waves. Rhythmic alpha (8-9 Hz) wave with reduced EMG activities may also appear. […] activity during REM sleep is reduced even further and in many cases, completely absent. Some muscle twitching may be apparent in the EMG trace during REM sleep.
(§2) Three drug doses of the test compound (50, 100 and 150 mg/kg PO) plus vehicle, was orally administered at ZT 2 (Zeitgeber time: 2 hours after light on) or ZT14 (Zeitgeber time: 2 hours after light off) and the effects on sleep was monitored for 6 hours after the drug administration (the sleep data was collected for 30 hours after the drug injection, and are available for further analysis). The doses for modafinil were 50 and 200 mg/kg PO (plus vehicle), and modafinil was also administered at ZT 2 and ZT 14.
(§3) If the polygraph signals of some mice were not sufficient to score the sleep stage with accuracy (especially bad EMG), data from these animals were excluded, and the minimum of 5 animals (except for the highest dose of the test compound in wild-type mice in dark period, n=4) were included for the data analysis and number of animals were indicated in the figures.
(§4) Effects of test compound and modafinil on the amount of wake, non-REM sleep, REM sleep (cumulative seconds), number of episodes for each sleep stage during 6 hours, mean wake/sleep-bout lengths (seconds) were analyzed in each animal and the mean of each parameter was calculated in each genotype. The effects of compounds on wake and sleep amounts are useful to evaluate the wake promoting potency, and the number of episodes for each sleep stage and the mean wake/sleep bout length are parameters for evaluating the sleep fragmentation. Amphetamine and modafinil, two main wake-promoting compounds currently used for the treatment of EDS associated with various etiologies (narcolepsy, idiopathic hypersomnia and secondary EDS), are known to increase wake time and prolong wake bout length in normal and EDS conditions.
(§5) A comparison of the effects between hypocretin deficient and wild-type mice is very useful in determining if the wake-promotion of the test compound is dependent on the availability of hypocretins, and if there is a possible change in the sensitivity of the receptive mechanisms of test compound in narcoleptic mice due to the hypocretin ligand deficiency.

[3] = system: littermate wild-type mice; assay: Sleep parameters (EEG/EMG) in littermate wild-type mice; format: in vivo; conditions: for Duration of continuous wakefulness: resting period (ZT 2)
Excerpt: as §1, §2, §3, §4, §5

[4] = target: T1, hDAT (human dopamine transporter) (Homo sapiens, UniProt Q01959); assay: Inhibition of [125I]RTI-55 radioligand binding to hDAT in HEK293 cell membranes
T1 construct: expressed in transfected cells; host or cells: HEK293 cells (ATCC), clonal, kept under puromycin selection

[5] = target: T1, hDAT (human dopamine transporter); assay: Filtration assay for inhibition of [3H]dopamine uptake in HEK-hDAT cells; format: cell-based
[6] = target: T2, hNET (human norepinephrine transporter) (Homo sapiens, UniProt P23975); assay: cell-based; conditions: HEK-hNET cells; mean ± SEM; read-out: [3H]NE Uptake IC50
T2 construct: expressed in transfected cells; host or cells: HEK293 cells (ATCC), clonal, kept under geneticin selection

[7] = target: T2, hNET (human norepinephrine transporter); assay: biochemical; format: binding; conditions: HEK-hNET cells, mean ± SEM
[8] = system: rats with sciatic nerve ligation; assay: Thermal hyperalgesia (hindpaw withdrawal latency, plantar tester) in rats with sciatic nerve ligation; format: in vivo, Sprague-Dawley rats; conditions: 30 mg/kg IP; for Mean paw withdrawal latency: n = 6, mean ± SEM
Method: Young adult male Sprague-Dawley rats (CD(SD)IGS, 150-200 g) were initially anesthetized with isoflurane in O2 by a mask and the surgical procedure was performed according to the method described by Bennett and Xie (1988). Briefly, the right sciatic nerves were loosely tied using ligatures. All experiments were conducted in accordance with the guidelines of the International Association for the Study of Pain. The behavioral tests were conducted at least 14 days postoperatively.
The test compound was dissolved in saline and administered intraperitoneally at 30 mg/kg to animals in a volume of 3 mL/kg body weight.
To test for thermal hyperalgesia, the thermal response was determined by the hindpaw withdrawal latency, using a plantar tester (UGO BASILE, Italy), and a modified method of Hargreaves et al. (1988). Rats were allowed to acclimate within plastic enclosures on a clear glass plate maintained at room temperature. A radiant heat source (intensity 90) was controlled with a timer and focused onto the plantar surface of the rat right hind paw encompassing the glabrous skin. Paw withdrawal stopped both heat source and timer. A maximal cut-off 30 sec was used to prevent tissue damage. Rats were assessed for thermal hyperalgesia predose (0 hr) and at 1, 4 and 8 hours after 30 mg/kg test compound administration.
Data are expressed as mean±standard error of mean (SEM). The values of behavioral signs of neuropathic pain at various postoperative time points were compared with those of the preoperative control period by a repeated-measure One-way Analysis of Variance (followed by Dunnett's post-hoc test). P-values less than 0.05 were considered to be significant.

[9] = target: T3, hSERT (human serotonin transporter) (Homo sapiens, UniProt P31645); assay: Inhibition of [125I]RTI-55 radioligand binding to hSERT in HEK293 cell membranes
T3 construct: expressed in transfected cells; host or cells: HEK293 cells (ATCC), clonal, kept under puromycin selection

[10] = resting period, PO, genotypes not separated

T1 sequence (Q01959 whole entry): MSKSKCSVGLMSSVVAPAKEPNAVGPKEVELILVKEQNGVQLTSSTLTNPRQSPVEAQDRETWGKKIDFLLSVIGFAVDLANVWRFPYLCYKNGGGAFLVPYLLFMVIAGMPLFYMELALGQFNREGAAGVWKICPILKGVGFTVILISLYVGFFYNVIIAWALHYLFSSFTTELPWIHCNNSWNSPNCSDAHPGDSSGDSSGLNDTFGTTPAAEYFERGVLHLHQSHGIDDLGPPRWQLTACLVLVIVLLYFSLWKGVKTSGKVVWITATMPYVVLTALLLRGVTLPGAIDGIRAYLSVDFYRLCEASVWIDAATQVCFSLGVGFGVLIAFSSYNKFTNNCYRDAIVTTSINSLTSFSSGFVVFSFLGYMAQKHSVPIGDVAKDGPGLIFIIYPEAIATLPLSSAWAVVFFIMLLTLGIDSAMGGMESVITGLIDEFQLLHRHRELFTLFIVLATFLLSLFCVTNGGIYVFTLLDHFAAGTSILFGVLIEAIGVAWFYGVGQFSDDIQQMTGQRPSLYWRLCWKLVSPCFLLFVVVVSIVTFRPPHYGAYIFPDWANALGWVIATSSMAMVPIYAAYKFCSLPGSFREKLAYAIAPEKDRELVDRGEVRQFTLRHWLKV
T2 sequence (P23975 whole entry): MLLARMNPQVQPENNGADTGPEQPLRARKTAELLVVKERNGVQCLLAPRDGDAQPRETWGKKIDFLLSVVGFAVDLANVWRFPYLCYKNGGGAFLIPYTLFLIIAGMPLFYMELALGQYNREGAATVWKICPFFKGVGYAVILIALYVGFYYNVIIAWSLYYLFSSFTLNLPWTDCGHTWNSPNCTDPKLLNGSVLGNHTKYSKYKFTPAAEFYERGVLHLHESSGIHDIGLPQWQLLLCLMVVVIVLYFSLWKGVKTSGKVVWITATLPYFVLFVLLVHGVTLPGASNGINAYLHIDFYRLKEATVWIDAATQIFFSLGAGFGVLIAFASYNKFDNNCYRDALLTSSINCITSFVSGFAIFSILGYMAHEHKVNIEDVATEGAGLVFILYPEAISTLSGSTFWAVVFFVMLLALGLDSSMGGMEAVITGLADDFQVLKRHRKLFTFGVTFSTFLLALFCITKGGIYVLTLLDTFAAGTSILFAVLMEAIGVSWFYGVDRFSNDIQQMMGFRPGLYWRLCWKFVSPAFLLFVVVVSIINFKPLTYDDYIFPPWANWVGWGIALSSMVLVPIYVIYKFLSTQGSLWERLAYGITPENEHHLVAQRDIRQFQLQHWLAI
T3 sequence (P31645 whole entry): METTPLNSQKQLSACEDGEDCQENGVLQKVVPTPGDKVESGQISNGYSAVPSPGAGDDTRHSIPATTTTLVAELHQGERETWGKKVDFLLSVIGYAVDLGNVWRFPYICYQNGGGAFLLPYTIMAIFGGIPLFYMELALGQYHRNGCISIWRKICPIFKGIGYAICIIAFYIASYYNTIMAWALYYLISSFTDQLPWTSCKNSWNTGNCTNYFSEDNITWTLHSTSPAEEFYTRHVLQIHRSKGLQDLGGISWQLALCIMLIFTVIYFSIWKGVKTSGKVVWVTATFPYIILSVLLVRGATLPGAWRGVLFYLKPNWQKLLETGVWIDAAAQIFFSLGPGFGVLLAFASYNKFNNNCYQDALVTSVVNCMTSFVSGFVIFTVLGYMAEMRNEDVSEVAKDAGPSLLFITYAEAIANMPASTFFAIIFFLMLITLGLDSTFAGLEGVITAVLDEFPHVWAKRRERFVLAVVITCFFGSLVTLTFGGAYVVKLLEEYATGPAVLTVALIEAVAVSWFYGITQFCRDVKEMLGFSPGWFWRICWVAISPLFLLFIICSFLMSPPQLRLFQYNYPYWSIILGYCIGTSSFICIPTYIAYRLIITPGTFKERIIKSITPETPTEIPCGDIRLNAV

CC(N)Cc1ccccc1 (stereo not drawn) [Amphetamine, reference compound]
Locomotor, rearing and stereotypical activities relative to vehicle controls (wild-type mice): increased | Locomotor, rearing and stereotypical activities relative to vehicle controls ([1]; 2 mg/kg SC): decreased

NC(=O)OC[C@H](N)Cc1ccccc1 [Test Compound, O-carbamoyl-(D)-phenylalaninol]
Duration of continuous wakefulness ([2]; narcoleptic mice, 50 mg/kg PO): up to 3 hours | Duration of continuous wakefulness ([2]; narcoleptic mice, 100 mg/kg PO): ≤ 4 h | Duration of continuous wakefulness ([2]; narcoleptic mice, 150 mg/kg PO): ≤ 5 h | Non-REM and REM sleep during the period of continuous wakefulness ([2]; narcoleptic mice, 50-150 mg/kg PO, resting period): completely suppressed | Wake-promoting effects ([2]; narcoleptic mice, active (dark) period (ZT 14), 50-150 mg/kg PO): much pronounced wake-promoting effects | Wake amounts ([2]; narcoleptic mice, active period, 100 and 150 mg/kg PO): brought up to the levels of wild-type mice | Amounts of non-REM and REM sleep ([2]; narcoleptic mice, active period, PO): brought down to the levels of wild-type mice | EEG patterns after administration ([2]; resting period, 50-150 mg/kg PO, genotypes not separated): no abnormal EEG patterns | Effect on REM sleep [2, 10]: potently reduced REM sleep | Duration of continuous wakefulness ([3]; 50 mg/kg PO): up to 3 hours | Duration of continuous wakefulness ([3]; 100 mg/kg PO): ≤ 4 h | Duration of continuous wakefulness ([3]; 150 mg/kg PO): ≤ 5 h | Non-REM and REM sleep during the period of continuous wakefulness ([3]; 50-150 mg/kg PO, resting period): completely suppressed | Wake-promoting effects ([3]; active (dark) period (ZT 14), 50-150 mg/kg PO): only small effects were observed | Spontaneous activity compared with amphetamine ([1]; 100 mg/kg SC vs 2 mg/kg amphetamine): suppressed activities more efficiently than amphetamine | Spontaneous activity (locomotor, rearing, stereotypical activities) ([1]; 10, 30, 100 mg/kg SC, 90 min post-injection): selectively reduced activity of the KO mice in a dose-dependent manner; also recorded: reduced activities in a dose-dependent fashion | Ki [4]: 14.2 µM | Hill coefficient ([4]; HEK-hDAT cells, mean ± SEM): −0.77 ± 0.12 | IC50 [5]: 2.9 µM | IC50 [6]: 4.4 µM | Hill coefficient [7]: −1.45 ± 0.34 | Ki ([7]; read-out: [125I]RTI-55 Binding Ki): 3.7 µM | Mean paw withdrawal latency ([8]; 0 hr (predose)): 5.17 ± 0.27 s | Mean paw withdrawal latency ([8]; 1 hr post-injection): 6.33 ± 0.14 s | Mean paw withdrawal latency ([8]; 4 hr post-injection): 6.06 ± 0.21 s | Mean paw withdrawal latency ([8]; 8 hr post-injection): 5.63 ± 0.16 s | % of Antagonism (latency at time point / latency at 0 hr − 1) × 100 ([8]; 1 hr post-injection): (22.3%^@) | % of Antagonism (latency at time point / latency at 0 hr − 1) × 100 ([8]; 4 hr post-injection): (17.2%) | % of Antagonism (latency at time point / latency at 0 hr − 1) × 100 ([8]; 8 hr post-injection): (8.8%) | Paw withdrawal latency to a thermal stimulus (in words) ([8]; vs pre-injection (0 hr)): significantly increased the paw withdrawal latency | Ki [9]: 81.5 µM | Hill coefficient ([9]; HEK-hSERT cells, mean ± SEM): −2.28 ± 0.05

NC(=O)C[S+]([O-])C(c1ccccc1)c1ccccc1 (stereo not drawn) [modafinil, reference compound]
Wake amount versus wild-type baseline ([2]; narcoleptic mice, active period, 200 mg/kg PO): did not bring the wake amount to that of the wild-type baseline levels | Wakefulness ([2]; narcoleptic mice, active period, 50 and 200 mg/kg PO): dose-dependently increase wakefulness | Wake promoting effect compared with test compound ([2]; resting period, 200 mg/kg PO, genotypes not separated): roughly corresponds to 50 mg/kg of test compound | Wake promoting effects ([2]; resting period, 50 and 200 mg/kg PO, genotypes not separated): modest | Effect on REM sleep [2, 10]: did not strongly reduce REM sleep
